{"source": "ChEMBL document CHEMBL1255395", "about": "“Laninamivir prodrug CS-8958, a long-acting neuraminidase inhibitor, shows superior anti-influenza virus activity after a single administration” (Antimicrob Agents Chemother, 2010)", "assay": "Half life in human", "assay_type": "ADME, organism-based", "settings": "in vivo", "data": [{"smiles": "CC(=O)N[C@H]1[C@H]([C@H](O)[C@H](O)CO)OC(C(=O)O)=C[C@@H]1N=C(N)N", "note": "[ZANAMIVIR]", "values": [{"measurement": "half-life", "result": 2.8, "unit": "h"}]}]}
